Columns and labels:
G-CSF = assay: Acute LPS-induced sepsis in C57BL/6 mice: G-CSF cytokine detection assay; format: in vivo; conditions: 100 mpk IP; LPS-challenged mice, plasma at 6.5 h; unpaired t-test vs vehicle
IFNγ = assay: Acute LPS-induced sepsis in C57BL/6 mice: IFNγ cytokine detection assay; format: in vivo; conditions: 100 mpk IP; LPS-challenged mice, plasma at 6.5 h; unpaired t-test vs vehicle
IL-12(p70) = assay: Acute LPS-induced sepsis in C57BL/6 mice: IL-12(p70) cytokine detection assay; format: in vivo; conditions: LPS-challenged mice, plasma at 6.5 h, unpaired t-test vs vehicle
Text: FIG. 16 is a graph showing the results of an IL-12(p70) cytokine detection assay in samples collected from mouse subjects after administration of compounds of the present disclosure.
(§1) The primary objective of this study was to collect plasma samples of lipopolysaccharide (LPS) challenged C57BL/6 mice after dose of test compounds to provide a cytokine profile as impacted by prophylactic treatments. This study models acute sepsis, which is a systemic inflammatory syndrome initiated by Gram-negative and Gram-positive bacteria and fungi which infect the lungs, abdomen, bloodstream, and renal or genitourinary tracts. Sepsis patients ultimately die of multiorgan failure which is caused by extensive tissue hypo-oxygenation due to ongoing microvascular leakage, disseminated intravascular coagulation, compromised energy production, and metabolic alterations. Sepsis is characterized by an early systemic inflammatory response phase featuring symptoms, such as tachycardia, fever, hyperventilation, and activation of the complement and coagulation cascades. However, it is now appreciated that a compensatory anti-inflammatory response phase follows, characterized by neuroendocrine-mediated immunosuppression. Since these processes are the result of interaction between cells of inflammation and organs, investigation of the treatment of this syndrome requires the use of intact animal models. The use of ten mice per group allows useful statistical modelling of the results.
(§2) For the data shown in Table 2A, 103 mice (female, 18-22 gram, C57BL/6) were purchased from ENVIGO. The mice were housed in 20 cages of 5 mice per cage with 1 cage of 3 mice as extra. The cages had filter tops and autoclaved bedding, and the animals were placed in quarantine with daily inspection. The treatment groups are detailed in Table 2A below. 10 mice were included in each group. […] MC=methyl cellulose.
(§3) For the data shown in Table 2B, 185 mice (female, 18-22 gram, C57BL/6) were purchased from ENVIGO. The mice were housed in 37 cages of 5 mice per cage. The cages had filter tops and autoclaved bedding, and the animals were placed in quarantine with daily inspection. The treatment groups are detailed in Table 2B below. 10 mice were included in each group. The mice were dosed by oral gavage (P0) at 10 ml/kg as per the table below. MC=methyl cellulose.
(§4) At T=0 h, the mice were dosed with one of the test compounds as described in the above table.
(§5) At T=0.5 h, the mice were injected IP with 1.5 mg/kg […] (Sigma).
(§6) At T=6.5 h, all mice were anesthetized and exsanguinated into pre-chilled EDTA-treated tubes. The blood was processed to plasma which was stored in labeled 0.5 polypropylene snap-cap tubes (0.5 mL Eppendorf Safe-Lock Tubes (Fisher Scientific) at −80° C.
(§7) Preparation of vehicle: 1.0 gram of methyl cellulose (Sigma) was dissolved in 200 mL of water (USP purified) to make a solution of 0.5% methyl cellulose in water. Preparation of LPS solution: 6 mg of LPS (from Escherichia Coli 055:B5, Cat #L2880, Sigma Lot #057m4013) was dissolved in 20 ml of saline to give a LPS solution of 0.3 mg/ml. All mice were injected with 5 ml/kg (1.5 mg/kg) at the scheduled time by intraperitoneal injection.
A 32-plex cytokine panel was obtained from Eve Technologies. Each cytokine was assessed based against a 7 point curve range in duplicate. The average of the two replicate analyses was used for statistics. Unpaired t-tests were performed using Excel™ contrasting vehicle against each treatment group. One star indicates P<0.05. […]

IL-17 = assay: Acute LPS-induced sepsis in C57BL/6 mice: IL-17 cytokine detection assay; format: in vivo; conditions: 100 mpk IP; LPS-challenged mice, plasma at 6.5 h; unpaired t-test vs vehicle
Text: FIG. 19 is a graph showing the results of an IL-17 cytokine detection assay in samples collected from mouse subjects after administration of compounds of the present disclosure.
as §1, §2, §3, §4, §5
(§8) At T=6.5 h, all mice were anesthetized and exsanguinated into pre-chilled EDTA-treated tubes. […]
(§9) A 32-plex cytokine panel was obtained from Eve Technologies. Each cytokine was assessed based against a 7 point curve range in duplicate. […]

IL-15 = assay: Acute LPS-induced sepsis in C57BL/6 mice: IL-15 cytokine detection assay; format: in vivo; conditions: 100 mpk IP; LPS-challenged mice, plasma at 6.5 h; unpaired t-test vs vehicle
MIP-1a(CCL3) = assay: Acute LPS-induced sepsis in C57BL/6 mice: MIP-1a(CCL3) cytokine detection assay; format: in vivo; conditions: 100 mpk IP; LPS-challenged mice, plasma at 6.5 h; unpaired t-test vs vehicle
IL-10 = assay: Acute LPS-induced sepsis in C57BL/6 mice: IL-10 cytokine detection assay; format: in vivo; conditions: 100 mpk IP; LPS-challenged mice, plasma at 6.5 h; unpaired t-test vs vehicle
eotaxin = assay: Acute LPS-induced sepsis in C57BL/6 mice: eotaxin cytokine detection assay; format: in vivo; conditions: 100 mpk IP; LPS-challenged mice, plasma at 6.5 h; unpaired t-test vs vehicle
IL-3 = assay: Acute LPS-induced sepsis in C57BL/6 mice: IL-3 cytokine detection assay; format: in vivo; conditions: 100 mpk IP; LPS-challenged mice, plasma at 6.5 h; unpaired t-test vs vehicle
IL-7 = assay: Acute LPS-induced sepsis in C57BL/6 mice: IL-7 cytokine detection assay; format: in vivo; conditions: 100 mpk IP; LPS-challenged mice, plasma at 6.5 h; unpaired t-test vs vehicle
[1] = test system: leukemia inhibitory factor (LIF); assay: Acute LPS-induced sepsis in C57BL/6 mice: leukemia inhibitory factor (LIF) cytokine detection assay; format: in vivo; conditions: 200 mpk PO; LPS-challenged mice, plasma at 6.5 h; unpaired t-test vs vehicle
Text: FIG. 21 is a graph showing the results of a leukemia inhibitory factor (LIF) cytokine detection assay in samples collected from mouse subjects after administration of compounds of the present disclosure. LIF is an interleukin 6 class cytokine that affects cell growth by inhibiting differentiation.
as §1
(§10) For the data shown in Table 2A, 103 mice (female, 18-22 gram, C57BL/6) were purchased from ENVIGO. The mice were housed in 20 cages of 5 mice per cage with 1 cage of 3 mice as extra. The cages had filter tops and autoclaved bedding, and the animals were placed in quarantine with daily inspection. The treatment groups are detailed in Table 2A below. 10 mice were included in each group. The mice were dosed by oral gavage (PO) at 10 ml/kg as per the table below. MC=methyl cellulose.
as §3, §4, §5, §6, §7, §9

KC = assay: Acute LPS-induced sepsis in C57BL/6 mice: KC cytokine detection assay; format: in vivo; conditions: 200 mpk PO; LPS-challenged mice, plasma at 6.5 h; unpaired t-test vs vehicle
Text: FIG. 20 is a graph showing the results of a KC cytokine detection assay in samples collected from mouse subjects after administration of compounds of the present disclosure.
as §1, §10, §3, §4, §5, §6, §7
A 32-plex cytokine panel was obtained from Eve Technologies. Each cytokine was assessed based against a 7 point curve range in duplicate. The average of the two replicate analyses was used for statistics. Unpaired t-tests were performed using Excel™ contrasting vehicle against each treatment group. One star indicates P<0.05. Two stars indicates P<0.01. Three stars indicates P<0.001. Four stars indicates P<0.0001. Most, but not all, statistically significant results are indicated with star(s).

IL-6 = assay: Acute LPS-induced sepsis in C57BL/6 mice: IL-6 cytokine detection assay; format: in vivo; conditions: 200 mpk PO; LPS-challenged mice, plasma at 6.5 h; unpaired t-test vs vehicle
Text: FIG. 11 is a graph showing the results of an IL-6 cytokine detection assay in samples collected from mouse subjects after administration of compounds of the present disclosure.
as §1, §10, §3, §4, §5, §8, §9

IL-9 = assay: Acute LPS-induced sepsis in C57BL/6 mice: IL-9 cytokine detection assay; format: in vivo; conditions: 200 mpk PO; LPS-challenged mice, plasma at 6.5 h; unpaired t-test vs vehicle
Text: FIG. 13 is a graph showing the results of an IL-9 cytokine detection assay in samples collected from mouse subjects after administration of compounds of the present disclosure.
as §1
as §10, with “cellulose. […]” for “cellulose.”
as §9

MIP2(CXCL2) = assay: Acute LPS-induced sepsis in C57BL/6 mice: MIP2(CXCL2) cytokine detection assay; format: in vivo; conditions: 200 mpk PO; LPS-challenged mice, plasma at 6.5 h; unpaired t-test vs vehicle
Text: FIG. 27 is a graph showing the results of a MIP2(CXCL2) cytokine detection assay in samples collected from mouse subjects after administration of compounds of the present disclosure.
as §1, §2, §3, §4, §5, §8, §9

[2] = 4-HNE trapping experiment (aldehyde adduct formation, Example 6); conditions: 4-HNE 1.5 eq; 20% Captisol in phosphate buffer pH 7.2; 24-h time period; LCMS
Procedure: Each of compounds ADX-102, I-32, I-8, I-29, and I-31 ([…]) was tested for reactivity using 4-hydroxynonenal (4-HNE) (1.5 eq) as a model aldehyde. ADX-102 is also known as Reproxalap. Each compound was dissolved in a 20% solution of Captisol in phosphate buffer (1 mL, pH=7.2). Then, 4-HNE in ethanol (10 mg/mL solution) was added to the solution. The ensuing reaction was monitored by LCMS analysis. The relative ratio of experimental compound/4-HNE adduct to final composition was plotted against time to provide an indication of reaction rate and level of reaction completeness.

IL-2 = assay: Acute LPS-induced sepsis in C57BL/6 mice: IL-2 cytokine detection assay; format: in vivo; conditions: 200 mpk PO; LPS-challenged mice, plasma at 6.5 h; unpaired t-test vs vehicle
Text: FIG. 7 is a graph showing the results of an IL-2 cytokine detection assay in samples collected from mouse subjects after administration of compounds of the present disclosure.
as §1, with “Since these processes are the result of interaction between cells of inflammation and organs, investigation of the treatment of this syndrome requires the use of intact animal models. The use of ten mice per group allows useful statistical modelling of the results.” left out
as §9

Row | 4-HNE binding (rate of formation of aldehyde adduct) [2] | Compound | G-CSF: significant cytokine change vs. vehicle (G-CSF) | IFNy: significant cytokine change vs. vehicle (IFNγ) | IL-12 (p70): significant cytokine change vs. vehicle (IL-12(p70); 100 mpk IP) | IL-17: significant cytokine change vs. vehicle (IL-17) | IL-15: significant cytokine change vs. vehicle (IL-15) | MIP-1a: significant cytokine change vs. vehicle (MIP-1a(CCL3)) | IL-10: significant cytokine change vs. vehicle (IL-10) | Eotaxin: significant cytokine change vs. vehicle (eotaxin) | IL-3: significant cytokine change vs. vehicle (IL-3) | IL-7: significant cytokine change vs. vehicle (IL-7) | LIF: significant cytokine change vs. vehicle [1] | KC: significant cytokine change vs. vehicle (KC) | IL-12 (p70): significant cytokine change vs. vehicle (IL-12(p70); 200 mpk PO) | IL-6: significant cytokine change vs. vehicle (IL-6) | IL-9: significant cytokine change vs. vehicle (IL-9) | MIP-2: significant cytokine change vs. vehicle (MIP2(CXCL2)) | IL-2: significant cytokine change vs. vehicle (IL-2)
1 |  | CC(O)(c1sc2ccccc2c1N)C(F)(F)F (stereo not drawn) [Compound I-1, 2-(3-aminobenzo[b]thiophen-2-yl)-1,1,1-trifluoropropan-2-ol] | * (One star indicates P<0.05) | **** (Four stars indicates P<0.0001) | * (One star indicates P<0.05) | *** (Three stars indicates P<0.001) | ** (Two stars indicates P<0.01) | ** (Two stars indicates P<0.01) | **** (Four stars indicates P<0.0001) | * (One star indicates P<0.05) | **** (Four stars indicates P<0.0001) | * (One star indicates P<0.05) |  |  |  |  |  |  | 
2 | the best binding | CC(C)(O)c1cc2c(cc1N)OCO2 [Compound I-29] |  |  |  |  |  |  |  |  |  |  | **** (Four stars indicates P<0.0001) | * (One star indicates P<0.05) | **** (Four stars indicates P<0.0001) | ** (Two stars indicates P<0.01) | *** (Three stars indicates P<0.001) | * (One star indicates P<0.05) | ** (Two stars indicates P<0.01)
